According to US10745454B2, “Method of synthesizing antagonist peptides for cell growth” (priority 2018, dated 2020):
One block for each compound: values may come before it.

Key:
[1] = test system: endothelial cell; conditions: Alzheimer's disease context; cited from earlier work
[2] = test system: adipose tissue; conditions: mice; cited from earlier work
[3] = target: T1, bFGFR-1 (receptor) (Homo sapiens, UniProt P11362); experiment: Competitive binding assay with bFGFR-1 in HUVECs (immunofluorescence); conditions: peptide 1000-2000 ng/ml overnight
T1 construct: with bFGFR-1 (receptor) in Human Umbilical Vein Endothelial Cells (HUVECs); endogenous in cells; host or cells: HUVEC (Human Umbilical Vein Endothelial Cells)
Method: Binding Assay—To assess competitive binding assay of bFGF antagonist, Human Umbilical Vein Endothelial Cells(HUVECs) are cultured in 96-well plates (5000 cells/well) with DMEM and 5% fetal bovine serum (FBS) incubated at 37° C. for overnight. After 24 h, the media in the 96-well plates is changed with DMEM without FBS and the cells are treated (except the control 96-well plates) with 1000-2000 ng/ml the peptides at 37° C. for overnight. The cells are fixed by 4% paraformaldehyde at room temperature for 5-10 min. After 5-10 minutes the cells are rinsed with phosphate buffer saline (PBS), permeabilized with PBS+0.3% Triton X-100. The […] with a mixture comprising 10% normal goat serum, bovine serum albumin (BSA) 1% PBST for 20 minutes in the room temperature. After 20 minutes the cells are subjected to anti-FGFR-1 (5000 ng/ml, Ab10646) with FITC-secondary (Ab6717) antibody and stained with propidium iodide (Sigma Aldrich, USA, P4170) (1 μg/ml) for nuclear staining. The cell-binding is analyzed by NIH Image J software.

[4] = test system: ovarian cancer cell line SKOV3; experiment: bFGF-induced SKOV3 proliferation assay (MTT); type: cell-based, human; conditions: for bFGF-induced proliferation of SKOV3: hr-bFGF, peptide 25-1000 ng/ml, 5-6 days
Method: Cell Proliferation Assay—To analyze the ability of basic fibroblast growth factor (bFGF) antagonist peptide to inhibit the bFGF-induced cell proliferation, the ovarian cell line SKOV3 is utilized. The SKOV3 cell line is found to be dependent on bFGF for cellular proliferation. For cell culture, SKOV3 cells are maintained in DMEM supplemented with 5% FBS, 1% streptomycin, penicillin, […] glutamine and is mycoplasma free.
For estimating the anti-proliferative activity of bFGF, SKOV3 is plated at 1×10^4 cell per well in a 24 well dish in 1 ml DMEM, the cells are maintained in DMEM and treated with human recombinant bFGF (hr-bFGF) (0-100 ng/ml) alone and in combination with different concentration of the antagonistic peptide (25-1000 ng/ml) every other day for total 5-6 days. The experiment is terminated when cells are in confluence. The MTT assay is performed. The absorbance is determined at 540 nm. The results are expressed as the mean of triplicate experiments (+SD). One-way analysis of variance is used to determine significance.

[5] = test system: HUVECs; experiment: Matrigel tube formation assay, bFGF antagonist; type: cell-based, human; conditions: peptide 2000 ng/ml
[6] = test system: 4T1 tumor; experiment: Histopathological staining of angiogenesis markers CD31 and CD34 in 4T1 tumors of treated mice; type: in vivo, BALB/c mice; conditions: 4T1 tumor tissue; i.p. daily, two weeks
Method: In vivo Tumor Growth Regression-Animal studies are conducted according to relevant national and international guidelines of the Weatherall report and Institutional Animal Care and Use Committee (IACUC) of Tehran University of Medical Sciences. The tumors induced in the female BALB/c mice (5 weeks old) are purchased from the Laboratory Animal Center of Iran Pasteur Institute and maintained under 12 h dark and light cycle. The 4T1 tumor model mouse are sterilized and established from the breast cancer bearing BALB/c mice by a standard protocol. The 4T1 tumor model mouse are prepared by cutting the tumor into pieces of <0.3 cm3. […] The tumor volume is measured every two days by a digital Vernier caliper (Mitutoyo, japan), using the following formula: v=a2×b×0.52 (where “a” is the shortest and “b” is the longest diameter).
Histopathological analyses—The excised tumor tissues are fixed in formalin (4%), embedded in paraffin, sectioned and stained against CD31, CD34, Ki-67, P53, Bcl-2 and TUNEL. […] To count microvessels of the murine breast cancer tissue, the 5 randomly selected vascularized areas are counted under scale bar 100 and 20 μm. The microvascular density (MVD) of the tumor is measured and evaluated by the standard protocol. The microvessels are manually counted on the images at scale bar of 20 μm. […]

[7] = test system: PI3K/AKT and MAPK/ERK1/2 pathways; experiment: Quantitative Western blot of PI3K/AKT and MAPK/ERK1/2 activation in 4T1 tumor extracts; type: in vivo, murine
Method: In vivo Tumor Growth Regression-Animal studies are conducted according to relevant national and international guidelines of the Weatherall report and Institutional Animal Care and Use Committee (IACUC) of Tehran University of Medical Sciences. The tumors induced in the female BALB/c mice (5 weeks old) are purchased from the Laboratory Animal Center of Iran Pasteur Institute and maintained under 12 h dark and light cycle. The 4T1 tumor model mouse are sterilized and established from the breast cancer bearing BALB/c mice by a standard protocol. The 4T1 tumor model mouse are prepared by cutting the tumor into pieces of <0.3 cm3. The tumor pieces are subcutaneously transplanted into the left flank of the mouse under ketamine (100 mg/kg, i.p.) and xylazine (10 mg/kg, i.p.) anesthesia. The mouse carrying tumors with a tumor size reaching to 400 mm3 are randomized and divided into groups. Each group of tumor induced mice comprises 6 mouse. The first group is treated with vascular endothelial growth factor (VEGF). The second group is treated with phosphate buffer saline. The first group or treated groups receives daily 1, 2.5 and 10 mg/kg i.p. of VEGF-antagonistic peptides compared to PBS control group for two weeks. The tumor volume is measured every two days by a digital Vernier caliper (Mitutoyo, japan), using the following formula: v=a2×b×0.52 (where “a” is the shortest and “b” is the longest diameter).
The tumor tissues from control and peptide-treated (cultured cells or mice) are lysed with RIPA lysis buffer. […] Protein concentrations are assessed by Bradford assay. […]
The premium nitrocellulose western blotting membranes are washed with TBST and incubated with horseradish peroxidase-conjugated goat anti-mouse IgG secondary antibody. […] The quantitative analysis of protein expression to the reference protein, repeated at least three times, is performed using ImageJ. […]

[8] = listed as bFGF antagonistic peptide
[9] = 4T1 mammary carcinoma tumor tissues

T1 sequence (P11362 22-822): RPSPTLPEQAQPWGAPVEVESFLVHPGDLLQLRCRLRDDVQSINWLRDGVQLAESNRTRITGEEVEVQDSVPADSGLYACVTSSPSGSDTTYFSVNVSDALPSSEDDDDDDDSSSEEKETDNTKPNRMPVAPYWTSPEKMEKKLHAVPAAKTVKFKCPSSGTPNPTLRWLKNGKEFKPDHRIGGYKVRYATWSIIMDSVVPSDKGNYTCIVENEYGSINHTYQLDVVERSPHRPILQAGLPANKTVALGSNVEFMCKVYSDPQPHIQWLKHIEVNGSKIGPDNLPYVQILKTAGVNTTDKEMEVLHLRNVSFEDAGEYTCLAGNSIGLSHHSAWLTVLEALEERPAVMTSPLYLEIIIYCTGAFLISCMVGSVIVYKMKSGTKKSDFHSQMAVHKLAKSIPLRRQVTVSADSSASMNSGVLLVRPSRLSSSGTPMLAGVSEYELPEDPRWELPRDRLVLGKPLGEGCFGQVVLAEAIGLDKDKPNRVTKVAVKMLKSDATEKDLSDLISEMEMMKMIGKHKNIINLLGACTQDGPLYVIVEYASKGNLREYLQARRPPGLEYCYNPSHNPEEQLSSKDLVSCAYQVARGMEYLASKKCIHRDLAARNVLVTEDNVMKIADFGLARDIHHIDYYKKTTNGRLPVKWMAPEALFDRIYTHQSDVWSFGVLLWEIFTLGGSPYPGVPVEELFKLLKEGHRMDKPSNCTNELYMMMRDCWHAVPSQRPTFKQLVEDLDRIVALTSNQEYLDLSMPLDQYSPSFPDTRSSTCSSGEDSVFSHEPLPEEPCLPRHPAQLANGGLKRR

Compound: CN(C)c1ccc(/C=C2\C(=O)Nc3ccccc32)cc1 [SU 4312]
vessel formation [1]: could be blocked

Compound: CO[C@@H]1[C@H](OC(=O)NC(=O)CCl)CC[C@]2(CO2)[C@H]1[C@@]1(C)O[C@@H]1CC=C(C)C [TNP-470]
diet-induced and genetic obesity [2]: able to prevent
vascularity in the adipose tissue [2]: reduced

binding to bFGFR-1 [3]: recognizes bFGFR
binding to bFGFR-1 [3, 8]: recognizes and binds
Compound: 2HN-Leu119-Lys120-Arg121-Thr122-Gly123-Gln124-Tyr125-Lys126-Leu127-COOH (H-LKRTGQYKL-OH; listed as Homo sapiens) [Seq. ID No. 5, antagonist of bFGF, residues 119-127 of bFGF]
bFGF-induced proliferation of SKOV3 [4]: suppressing bFGF-induced proliferation
bFGF-induced proliferation of SKOV3 ([4]; listed as bFGF antagonist peptide): inhibits the bFGF-induced proliferation of ovarian cancer cell line SKOV3 in a dose-dependent manner
bFGF-induced proliferation of SKOV3 [4, 8]: inhibit the proliferation
SKOV3 cell proliferation at 400 ng/ml peptide ([4]; peptide 400 ng/ml): reduced
anti-angiogenic activity, Matrigel assay [5]: inhibits the angiogenesis process
anti-angiogenic effect, staining of angiogenesis marker CD31 [6]: inhibits the angiogenesis
anti-angiogenic effect, staining of angiogenesis marker CD34 [6]: inhibits the angiogenesis
AKT phosphorylation [7, 9]: able to block
ERK1/2 phosphorylation [7, 9]: able to block
difference in p-AKT or p-ERK inhibition levels between dosages ([7]; dosages 1 and 10 mg/kg): no significant difference
